# Test results reported in patent publication US10995068B2, “Synthetic sphingolipid-like molecules, drugs, methods of their synthesis and methods of treatment” (The Regents of the University of California, priority 2015, dated 2021).
# How the values were obtained:
# [1] = tested on: luciferase-expressing SW620 xenografts; experiment: Luciferase-expressing SW620 xenografts treated with SH-BC-893; assay type: in vivo, mice; conditions: for SW620 tumors by bioluminescence imaging, caliper measurements and tumor mass at sacrifice: luciferase-expressing SW620 xenografts in mice, SH-BC-893 20 mg/kg i.p.
# Protocol: In many embodiments, exemplary experimentation was carried out to determine whether azacyclic constrained sphingolipid-lipid molecules inhibited neoplastic growth in vivo. To carry out this experimentation, luciferase-expressing SW620 xenografts were generated in mice.
# In vivo studies. Experiments conducted in mice were performed in accordance with the Institutional Animal Care and Use Committee of University of California, Irvine following a power analysis conducted in consultation with the Biostatistics Shared Resource of Chao Family Comprehensive Cancer Center at UCI. Xenografts were produced by injecting 5 million cells subcutaneously in the flank of 10-16 week-old male or female NSG mice. Prostate isografts were produced in the same manner but in male 6-8 wk old C57BL/6 mice. Once tumors reached 100 mm^3, SH-BC-893 was administered by intraperitoneal (i.p.) injection or oral gavage as indicated. Tumor volume was calculated using the formula, volume (mm^3)=length [mm]×(width [mm])^2×0.52; BLI was measured using an IVIS imaging system (Xenogen). To generate pDKO mice on the C57BL6 background, Pten^flox mice (stock No. 0045597) and p53^flox mice (stock No. 008462) were obtained from the Jackson Laboratory and PB-Cre4 mice (strain #01XF5) were obtained from the NCI-Frederick Mouse Repository. Age-matched cohorts of pDKO males were generated by in vitro fertilization executed with the assistance of the Transgenic Mouse Facility at UC Irvine. Treatment was begun at 6-7 wks of age. […] Tumor samples were processed and imaged by the Pathology Research Services Core Facility at UC Irvine. Blood chemistry was analyzed by IDEXX BioResearch and complete blood counts were performed using a Hemavet hematology system.
# [2] = Lymphocyte sequestration in mice; assay type: in vivo, C57BL6 mice; conditions: 10 mg/kg intraperitoneally, blood after 12 h, compared to saline
# Text: In more exemplary embodiments, compounds 5 and 5-P were further examined for their ability to activate multiple S1P receptors in vivo. In particular, mouse heart rate and lymphocyte sequestration were examined. Mouse heart rate decreases causing bradycardia when S1P receptor 3 is activated while in humans this effect may be mediated by S1P receptor 1. In both mice and humans, lymphocytes are sequestered when the S1P receptor 1 is activated.
# Lymphocyte sequestration: Female 8-24 week old C57BL6 mice are injected intraperitoneally with vehicle (0.9% saline or 20% acidified DMSO in 0.9% saline), 10 mg/kg FTY720, FTY720-phosphate, 5, or 5-P. After 12 h, blood is collected from the retro-orbital sinus under ketamine/xylazine anesthesia. 10 μL of whole blood is added to 190 μL of ACK red blood cell lysis buffer, incubated at room temperature for 3-5 minutes […], and the white blood cells recovered by centrifugation. Nucleated cells (Hoechst33342 positive) are counted using a hemocytometer to obtain the white blood cell count. Separately, 50 μL of whole blood is added to 1 mL of ACK red blood cell lysis buffer and incubated for 3-5 minutes at room temperature. Cells are washed with FACS wash (2% FCS in PBS with 0.05% NaN3) and red blood cell lysis repeated. Tubes are decanted and resuspended in 100 μL of FACS block (10% FCS in PBS with 0.05% NaN3) with directly conjugated antibodies recognizing B220, CD4, or CD8 (all from Biolegend, San Diego) for 30 min on ice. Cells are analyzed on a BD LSR II flow cytometer; the analysis is restricted to live cells (DAPI negative). These experiments are performed in accordance with all national or local guidelines and regulations and are approved by the UCI Institutional Animal Care and Use Committee.
# [3] = tested on: 4F2 cell-surface antigen heavy chain (4F2hc); experiment: Surface 4F2hc nutrient transporter expression; assay type: cell-based, human; conditions: treatment at IC50 and at twice this dose, 6 h; efficacy similar to FTY720
# Text: The broad activity of the embodiments of the inventions described herein is consistent with a bioenergetic mechanism of action against cancer cells that includes nutrient transporter down-regulation, as described supra. Thus, to directly examine the constrained pyrrolidine sphingolipid-like molecules on nutrient transport, the surface-levels of the amino acid transporter associated protein 4F2 cell-surface antigen heavy chain (4F2hc) was examined following treatment with several analogues at their IC50 and at twice this dose.
# Nutrient transporter expression: Surface 4F2hc expression is measured at 6 h using phycoerythrin (PE)-conjugated mouse anti-human 4F2hc antibody (BD Pharmingen, cat #556077); analysis is restricted to viable cells. PE conjugated Mouse IgG1, k (cat #555749, BD Pharmingen) is used as an isotype control. Cells are analyzed on a BD LSR II flow cytometer and with FlowJo software (Treestar).
SMILES,"SW620 tumors by bioluminescence imaging, caliper measurements and tumor mass at sacrifice [1]",lymphocyte sequestration [2],body weight of treated mice ([1]; SW620 xenograft mice),4F2hc surface levels [3]
"CCCCCCCCc1ccc(CCC(N)(CO)CO)cc1.Cl [FTY720, 2-Amino-2-[2-(4-octylphenyl)ethyl]propane 1,3-diol hydrochloride, reference compound]",reduced to a similar degree,significantly sequestered lymphocytes,–,–
"CCCCCCCCc1ccc([C@H]2CCN[C@@H]2CO)cc1.Cl [Compound 5, (2S,3R)-2-(hydroxymethyl)-3-(4-octylphenyl)Pyrrolidinium chloride]",reduced to a similar degree,no significant effect,Mild weight loss,reduced 4F2hc surface levels
CCCCCCCCc1ccc([C@@H]2CCN[C@H]2CO)cc1.Cl [Compound 6],–,–,–,reduced 4F2hc surface levels
